Test results as given in patent US20230257372A1 (CHONG KUN DANG PHARMACEUTICAL CORP., priority 2020, published 2023).
Read-outs that look alike come from different tables or passages of the source.

What was measured:
human recombinant HDAC6 = molecular target: T1, human recombinant HDAC6 (Homo sapiens, UniProt Q9UBN7); experiment: HDAC6 enzyme activity inhibition (HDAC Fluorimetric Drug Discovery Kit); format: biochemical
T1 construct: purchased Calbiochem Inc. 382180
T1 sequence (Q9UBN7 1-1215): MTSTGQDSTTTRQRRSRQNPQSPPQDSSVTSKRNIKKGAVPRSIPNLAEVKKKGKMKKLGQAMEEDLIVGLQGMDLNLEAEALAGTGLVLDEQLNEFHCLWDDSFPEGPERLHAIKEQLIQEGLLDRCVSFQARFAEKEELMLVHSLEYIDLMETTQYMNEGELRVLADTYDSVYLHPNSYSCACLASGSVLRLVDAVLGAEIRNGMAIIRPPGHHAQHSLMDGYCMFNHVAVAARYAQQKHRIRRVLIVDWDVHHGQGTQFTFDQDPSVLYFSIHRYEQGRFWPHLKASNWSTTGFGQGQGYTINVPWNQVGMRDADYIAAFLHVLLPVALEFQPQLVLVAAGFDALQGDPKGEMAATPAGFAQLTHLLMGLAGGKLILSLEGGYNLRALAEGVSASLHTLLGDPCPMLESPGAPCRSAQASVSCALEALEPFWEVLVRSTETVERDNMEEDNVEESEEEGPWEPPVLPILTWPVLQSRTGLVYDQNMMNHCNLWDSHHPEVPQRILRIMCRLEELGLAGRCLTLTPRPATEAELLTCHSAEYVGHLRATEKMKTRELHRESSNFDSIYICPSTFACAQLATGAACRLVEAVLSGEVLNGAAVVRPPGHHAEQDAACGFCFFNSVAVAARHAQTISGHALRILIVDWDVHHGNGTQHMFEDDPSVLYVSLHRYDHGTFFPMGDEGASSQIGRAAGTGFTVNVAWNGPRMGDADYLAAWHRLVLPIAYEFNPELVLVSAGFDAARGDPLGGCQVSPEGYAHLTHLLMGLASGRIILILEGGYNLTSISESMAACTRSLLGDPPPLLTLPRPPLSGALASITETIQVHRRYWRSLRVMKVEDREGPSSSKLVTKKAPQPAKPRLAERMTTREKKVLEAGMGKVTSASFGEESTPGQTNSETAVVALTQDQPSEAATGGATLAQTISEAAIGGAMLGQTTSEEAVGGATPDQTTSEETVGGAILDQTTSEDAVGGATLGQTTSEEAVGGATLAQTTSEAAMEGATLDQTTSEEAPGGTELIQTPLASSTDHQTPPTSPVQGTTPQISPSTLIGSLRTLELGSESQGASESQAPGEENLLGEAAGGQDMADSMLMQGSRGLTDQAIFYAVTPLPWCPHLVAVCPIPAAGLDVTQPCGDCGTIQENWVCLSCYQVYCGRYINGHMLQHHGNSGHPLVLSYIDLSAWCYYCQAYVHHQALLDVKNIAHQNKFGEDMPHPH
In short: (§1)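 Five-fold compound dilutions incubated with […] recombinant enzyme and 10 μM fluorogenic Fluor de Lys substrate, 60 min at 30° C. Fluor de Lys Developer II then added for 30 min to generate the fluorescent read-out.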

human recombinant HDAC1 = molecular target: T2, human recombinant HDAC1 (Homo sapiens, UniProt Q13547); experiment: HDAC1 enzyme activity inhibition (HDAC Fluorimetric Drug Discovery Kit); format: biochemical; settings: read-out: HDAC1
T2 construct: purchased Enzo Life Science, Inc. BML-SE456
In short: as §1

[1] = human recombinant HDAC6, IC50 calculated with GraphPad Prism
[2] = human recombinant HDAC1, IC50 calculated with GraphPad Prism
[3] = human recombinant HDAC6, same protocol as HDAC1
[4] = human recombinant HDAC1, Fluor de Lys substrate, 30° C. 60 minutes

T2 sequence (Q13547 whole entry): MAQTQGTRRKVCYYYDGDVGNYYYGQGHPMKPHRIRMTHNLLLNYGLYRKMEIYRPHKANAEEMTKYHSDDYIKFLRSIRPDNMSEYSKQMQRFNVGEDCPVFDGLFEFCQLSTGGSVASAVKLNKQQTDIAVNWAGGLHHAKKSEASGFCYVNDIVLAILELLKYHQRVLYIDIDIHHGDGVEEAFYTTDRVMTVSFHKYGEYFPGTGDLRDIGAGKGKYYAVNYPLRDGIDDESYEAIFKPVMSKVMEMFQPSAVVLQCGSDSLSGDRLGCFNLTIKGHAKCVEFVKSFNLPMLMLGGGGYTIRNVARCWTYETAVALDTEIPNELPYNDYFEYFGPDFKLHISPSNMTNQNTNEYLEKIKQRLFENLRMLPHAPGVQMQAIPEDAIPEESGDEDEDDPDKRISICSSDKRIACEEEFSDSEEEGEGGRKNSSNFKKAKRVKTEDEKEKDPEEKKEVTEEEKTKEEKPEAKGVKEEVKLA

| HDAC6 selectivity (fold) (human recombinant HDAC6; HDAC1 IC50 / HDAC6 IC50) | IC50 (human recombinant HDAC6; [1]) [nM] | IC50 (human recombinant HDAC1; [2]) [µM] | HDAC6 selectivity (fold) (human recombinant HDAC6; HDAC6 over HDAC1) | IC50 (human recombinant HDAC6; [3]) [nM] | IC50 (human recombinant HDAC1; [4]) [µM] | Structure (SMILES) |
| --- | --- | --- | --- | --- | --- | --- |
| 1024 | 48.8 | > 50 | – | – | – | Fc1cc(-c2nnc(C(F)F)o2)ccc1Cn1cc(-c2ccc3c(c2)CCN(C2CN(C4COC4)C2)C3)nn1 [Compound 4395, 2-(difluoromethyl)-5-(3-fluoro-4-((4-(2-(1-(oxetan-3-yl)azetidin-3-yl)-1,2,3,4-tetrahydroisoquinolin-6-yl)-1H-1,2,3-triazol-1-yl)methyl)phenyl)-1,3,4-oxadiazole] |
| – | – | – | 994 | 50.3 | > 50 | Fc1cc(-c2nnc(C(F)F)o2)ccc1Cn1cc(-c2ccc3c(c2)CN(C2COC2)C3)nn1 [Compound 4519, 2-(difluoromethyl)-5-(3-fluoro-4-((4-(2-(oxetan-3-yl)isoindolin-5-yl)-1H-1,2,3-triazol-1-yl)methyl)phenyl)-1,3,4-oxadiazole] |
| – | – | – | 2283 | 21.9 | > 50 | CN1CCN(c2cc(-c3cn(Cc4ccc(-c5nnc(C(F)F)o5)cn4)nn3)ccn2)CC1 [Compound 4582, 2-(difluoromethyl)-5-(6-((4-(2-(4-methylpiperazin-1-yl)pyridin-4-yl)-1H-1,2,3-triazol-1-yl)methyl)pyridin-3-yl)-1,3,4-oxadiazole] |
| – | – | – | 2222 | 22.5 | > 50 | CCN1CCN(Cc2ccc(-c3cn(Cc4ccc(-c5nnc(C(F)F)o5)cn4)nn3)cc2)CC1 [Compound 4563, 2-(difluoromethyl)-5-(6-((4-(4-((4-ethylpiperazin-1-yl)methyl)phenyl)-1H-1,2,3-triazol-1-yl)methyl)pyridin-3-yl)-1,3,4-oxadiazole] |
| – | – | – | 2392 | 20.9 | > 50 | CC(C)N1CC(c2cccc(-c3cn(Cc4ccc(-c5nnc(C(F)F)o5)cc4)nn3)c2)C1 [Compound 4509, 2-(difluoromethyl)-5-(4-((4-(3-(1-isopropylazetidin-3-yl)phenyl)-1H-1,2,3-triazol-1-yl)methyl)phenyl)-1,3,4-oxadiazole] |
| 922 | 54.2 | > 50 | – | – | – | FC(F)c1nnc(-c2ccc(Cn3cc(-c4ccco4)nn3)nc2)o1 [Compound 3861, 2-(difluoromethyl)-5-(6-((4-(furan-2-yl)-1H-1,2,3-triazol-1-yl)methyl)pyridin-3-yl)-1,3,4-oxadiazole] |
| 1655 | 30.2 | > 50 | – | – | – | C[C@@H]1CN(c2cccc(-c3cn(Cc4ccc(-c5nnc(C(F)F)o5)cc4)nn3)c2)C[C@H](C)N1 [Compound 4440, 2-(difluoromethyl)-5-(4-((4-(3-((3R,5S)-3,5-dimethylpiperazin-1-yl)phenyl)-1H-1,2,3-triazol-1-yl)methyl)phenyl)-1,3,4-oxadiazole] |
| 815 | 61.3 | > 50 | – | – | – | CN(C)CC(=O)Nc1cccc(-c2cn(Cc3ccc(-c4nnc(C(F)F)o4)cc3)nn2)c1 [Compound 4329, N-(3-(1-(4-(5-(difluoromethyl)-1,3,4-oxadiazol-2-yl)benzyl)-1H-1,2,3-triazol-4-yl)phenyl)-2-(dimethylamino)acetamide] |
| – | – | – | 3846 | 13 | > 50 | Fc1cc(-c2nnc(C(F)F)o2)ccc1Cn1cc(-c2ccnc3[nH]ccc23)nn1 [Compound 4526, 2-(4-((4-(1H-pyrrolo[2,3-b]pyridin-4-yl)-1H-1,2,3-triazol-1-yl)methyl)-3-fluorophenyl)-5-(difluoromethyl)-1,3,4-oxadiazole] |
| 498 | 100 | > 50 | – | – | – | CC(C)(F)C(=O)N1CCC(c2cn(Cc3ccc(-c4nnc(C(F)F)o4)cn3)nn2)CC1 [Compound 3894] |
| – | – | – | 622 | 80.3 | > 50 | COc1cccc(-c2cn(Cc3ccc(-c4nnc(C(F)F)o4)cc3F)nn2)n1 [Compound 18736, 2-(difluoromethyl)-5-(3-fluoro-4-((4-(6-methoxypyridin-2-yl)-1H-1,2,3-triazol-1-yl)methyl)phenyl)-1,3,4-oxadiazole] |
| – | – | – | 606 | 82.4 | > 50 | Fc1cc(-c2nnc(C(F)F)o2)cnc1Cn1cc(-c2ccc(CN3CCC3)cn2)nn1 [Compound 18622, 2-(6-((4-(5-(azetidin-1-ylmethyl)pyridin-2-yl)-1H-1,2,3-triazol-1-yl)methyl)-5-fluoropyridin-3-yl)-5-(difluoromethyl)-1,3,4-oxadiazole] |
| 782 | 63.9 | > 50 | – | – | – | O=C(O)c1cccc(-c2cn(Cc3ccc(-c4nnc(C(F)F)o4)cn3)nn2)c1 [Compound 3739] |
| 343 | 145 | > 50 | – | – | – | CCCc1cn(Cc2ccc(-c3nnc(C(F)F)o3)cn2)nn1 [Compound 3831, 2-(difluoromethyl)-5-(6-((4-propyl-1H-1,2,3-triazol-l-yl)methyl)pyridin-3-yl)-1,3,4-oxadiazole] |
| – | – | – | 662 | 75.5 | > 50 | FC(F)c1nnc(-c2ccc(Cn3cc(-c4cccc5c4CN(C4COC4)C5)nn3)nc2)o1 [Compound 4599, 2-(difluoromethyl)-5-(6-((4-(2-(oxetan-3-yl)isoindolin-4-yl)-1H-1,2,3-triazol-1-yl)methyl)pyridin-3-yl)-1,3,4-oxadiazole] |
| 841 | 59.4 | > 50 | – | – | – | FC(F)c1nnc(-c2ccc(Cn3cc(-c4cccc(CN5CCC5)c4)nn3)nc2)o1 [Compound 3963, 2-(6-((4-(3-(azetidin-1-ylmethyl)phenyl)-1H-1,2,3-triazol-1-yl)methyl)pyridin-3-yl)-5-(difluoromethyl)-1,3,4-oxadiazole] |
| 7575 | 6.6 | > 50 | – | – | – | FC(F)c1nnc(-c2ccc(Cn3cc(-c4ccc5cn[nH]c5c4)nn3)nc2)o1 [Compound 4340, 2-(6-((4-(1H-indazol-6-yl)-1H-1,2,3-triazol-1-yl)methyl)pyridin-3-yl)-5-(difluoromethyl)-1,3,4-oxadiazole] |
| – | – | – | 313 | 160 | > 50 | Fc1cc(-c2nnc(C(F)F)o2)ccc1Cn1cc(-c2cccc(N3CCN(CC4(F)CC4)CC3)c2F)nn1 [Compound 4602, 2-(difluoromethyl)-5-(3-fluoro-4-((4-(2-fluoro-3-(4-((1-fluorocyclopropyl)methyl)piperazin-1-yl)phenyl)-1H-1,2,3-triazol-1-yl)methyl)phenyl)-1,3,4-oxadiazole] |
| 548 | 91.2 | > 50 | – | – | – | Fc1cc(-c2nnc(C(F)F)o2)ccc1Cn1cc(-c2ccc(F)c(N3CCN(C4COC4)CC3)c2)nn1 [Compound 4427, 2-(difluoromethyl)-5-(3-fluoro-4-((4-(4-fluoro-3-(4-(oxetan-3-yl)piperazin-1-yl)phenyl)-1H-1,2,3-triazol-1-yl)methyl)phenyl)-1,3,4-oxadiazole] |
| – | – | – | 668 | 74.8 | > 50 | CN(C)Cc1cc(-c2cn(Cc3ccc(-c4nnc(C(F)F)o4)cc3F)nn2)cs1 [Compound 18188, 1-(4-(1-(4-(5-(difluoromethyl)-1,3,4-oxadiazol-2-yl)-2-fluorobenzyl)-1H-1,2,3-triazol-4-yl)thiophen-2-yl)-N,N-dimethylmethanamine] |
| 486 | 103 | > 50 | – | – | – | Cc1cc2ccc(-c3cn(Cc4ccc(-c5nnc(C(F)F)o5)cc4)nn3)cc2[nH]1 [Compound 4288] |
